Measurements taken from patent US20140045873A1, “NOVEL MICROBIOCIDES” (SYNGENTA PARTICIPATIONS AG, priority 2010, published 2014).
Where two headings read alike, the source gives them in different places.

Experiments:
[1] = test system: Puccinia recondita f. sp. tritici; settings: in Triticum aestivum, foliar, read-out: control of Puccinia recondita f. sp. tritici (percent disease control compared to untreated)
[2] = test system: Botryotinia fuckeliana (Botrytis cinerea); test: Botryotinia fuckeliana (Botrytis cinerea) / liquid culture (gray mould); format: cell-based; settings: Vogels broth, 24° C., 3-4 days after application, read-out: control of Botryotinia fuckeliana (inhibition of growth, photometric)
Description: Botryotinia Fuckeliana (Botrytis cinerea)/Liquid Culture (Gray Mould): Conidia of the fungus from cryogenic storage were directly mixed into nutrient broth (Vogels broth). […].45

[3] = test system: Mycosphaerella arachidis (Cercospora arachidicola); test: Mycosphaerella arachidis (Cercospora arachidicola) / liquid culture (early leaf spot); format: cell-based; settings: read-out: control of Mycosphaerella arachidis (inhibition of growth, photometric)
Pyrenophora teres = settings: in Hordeum vulgare, foliar, read-out: control of Pyrenophora teres (disease control compared to untreated)
[4] = test system: Monographella nivalis (Microdochium nivale); test: Monographella nivalis (Microdochium nivale) / liquid culture (foot rot cereals); format: cell-based; settings: PDB, 24° C., 4-5 days after application, read-out: control of Monographella nivalis (inhibition of growth, photometric)
[5] = test system: Glomerella lagenarium (Colletotrichum lagenarium); test: Glomerella lagenarium (Colletotrichum lagenarium) / liquid culture (anthracnose); format: cell-based; settings: Colletotrichum orbiculare, read-out: control of Glomerella lagenarium (inhibition of growth, photometric)
[6] = test system: Phaeosphaeria nodorum (Septoria nodorum); settings: Parastagonospora nodorum, in Triticum aestivum, foliar, read-out: control of Phaeosphaeria nodorum (percent disease control compared to untreated)
[7] = test system: Thanatephorus cucumeris (Rhizoctonia solani); settings: read-out: control of Thanatephorus cucumeris (inhibition of growth, photometric)
[8] = test system: Puccinia recondita f. sp. tritici; settings: in Triticum aestivum, foliar, read-out: control of Puccinia recondita f. sp. tritici (percent disease control compared to untreated); remark: listed apart in the source
Gaeumannomyces graminis = Gaeumannomyces graminis / liquid culture (take-all of cereals); format: cell-based; settings: read-out: control of Gaeumannomyces graminis (inhibition of growth, photometric)
[9] = test system: Mycosphaerella graminicola (Septoria tritici); test: Mycosphaerella graminicola (Septoria tritici) / liquid culture (Septoria blotch); format: cell-based; settings: Zymoseptoria tritici, read-out: control of Mycosphaerella graminicola (inhibition of growth, photometric)
[10] = 200 ppm, liquid culture, PDB, 24° C., 4-5 days after application
[11] = 200 ppm, liquid culture, PDB, 24° C., 3-4 days after application

C/C(=N\OCCCc1cccc(-c2ccccn2)n1)c1cccc(C)n1 [P.01]
≥ 80%: pest or weed control at 200 ppm [1] | inhibition at 200 ppm [2] | inhibition at 200 ppm [3, 10] | pest or weed control at 200 ppm (Pyrenophora teres) | inhibition at 200 ppm [4] | inhibition at 200 ppm [5, 11] | pest or weed control at 200 ppm [6] | inhibition at 200 ppm [7] | pest or weed control at 200 ppm [8]

C/C(=N\OCCCc1cccc(-c2nccc(C)n2)n1)c1cccc(C)n1 [P.02]
≥ 80%: pest or weed control at 200 ppm [1] | inhibition at 200 ppm (Gaeumannomyces graminis) | inhibition at 200 ppm [9] | inhibition at 200 ppm [3] | pest or weed control at 200 ppm (Pyrenophora teres) | inhibition at 200 ppm [5] | pest or weed control at 200 ppm [6] | inhibition at 200 ppm [7] | pest or weed control at 200 ppm [8]

C/C(=N\OCCCc1cccc(-c2ccnc(C)n2)n1)c1cccc(C)n1 [P.03]
≥ 80%: pest or weed control at 200 ppm [1] | inhibition at 200 ppm [2] | inhibition at 200 ppm (Gaeumannomyces graminis; [10]) | inhibition at 200 ppm [9, 10] | inhibition at 200 ppm [3, 10] | pest or weed control at 200 ppm (Pyrenophora teres) | pest or weed control at 200 ppm [6] | inhibition at 200 ppm [7]

C/C(=N\OCCCc1cccc(-c2ncccn2)n1)c1cccc(C)n1 [P.04]
≥ 80%: pest or weed control at 200 ppm [1] | inhibition at 200 ppm [2] | inhibition at 200 ppm [3, 10] | pest or weed control at 200 ppm [6] | inhibition at 200 ppm [7] | pest or weed control at 200 ppm [8]

C/C(=N\OCCCc1cccc(-c2ccncn2)n1)c1cccc(C)n1 [P.06]
≥ 80%: inhibition at 200 ppm (Gaeumannomyces graminis; [10]) | inhibition at 200 ppm [9, 10]

C/C(=N\OCCCc1cccc(-c2ccnc(C3CC3)n2)n1)c1cccc(C)n1 [P.07]
≥ 80%: inhibition at 200 ppm [2] | inhibition at 200 ppm (Gaeumannomyces graminis; [10]) | inhibition at 200 ppm [9, 10] | inhibition at 200 ppm [3, 10] | pest or weed control at 200 ppm (Pyrenophora teres) | inhibition at 200 ppm [4] | inhibition at 200 ppm [5, 11] | pest or weed control at 200 ppm [6] | inhibition at 200 ppm [7]

C/C(=N\OCCCc1cccc(-c2ccnc(-c3ccccc3)n2)n1)c1cccc(C)n1 [P.08]
≥ 80%: inhibition at 200 ppm [2] | inhibition at 200 ppm (Gaeumannomyces graminis; [10]) | inhibition at 200 ppm [9, 10] | inhibition at 200 ppm [3, 10]

CSc1nccc(-c2cccc(CCCO/N=C(\C)c3cccc(C)n3)n2)n1 [P.09]
≥ 80%: pest or weed control at 200 ppm [1] | inhibition at 200 ppm [2] | inhibition at 200 ppm (Gaeumannomyces graminis; [10]) | inhibition at 200 ppm [9, 10] | inhibition at 200 ppm [3, 10] | pest or weed control at 200 ppm (Pyrenophora teres) | pest or weed control at 200 ppm [6]

C/C(=N\OCCCc1cccc(-c2ccnc(Cc3ccccc3)n2)n1)c1cccc(C)n1 [P.10]
≥ 80%: inhibition at 200 ppm [2] | inhibition at 200 ppm (Gaeumannomyces graminis; [10]) | inhibition at 200 ppm [9, 10] | inhibition at 200 ppm [3, 10] | pest or weed control at 200 ppm (Pyrenophora teres)

C/C(=N\OCCCc1cccc(-c2cc(O)cc(C)n2)n1)c1cccc(C)n1 [P.14, 1-(6-methyl-pyridin-2-yl)-ethanone-O-[3-(4′-hydroxy-6′-methyl-[2,2′]bipyridinyl-6-yl)-propyl]-oxime]
≥ 80%: inhibition at 200 ppm (Gaeumannomyces graminis; [10]) | inhibition at 200 ppm [9, 10] | inhibition at 200 ppm [3, 10]

C/C(=N\OCCCc1cccc(-c2cc(OCc3ccccc3)cc(C)n2)n1)c1cccc(C)n1 [P.15]
≥ 80%: pest or weed control at 200 ppm [1] | inhibition at 200 ppm [2] | inhibition at 200 ppm (Gaeumannomyces graminis; [10]) | inhibition at 200 ppm [9, 10] | inhibition at 200 ppm [3, 10] | pest or weed control at 200 ppm (Pyrenophora teres) | inhibition at 200 ppm [4] | inhibition at 200 ppm [5, 11] | pest or weed control at 200 ppm [6] | inhibition at 200 ppm [7] | pest or weed control at 200 ppm [8]

CC(=O)c1ccc(-c2cccc(CCCO/N=C(\C)c3cccc(C)n3)n2)nc1C [P.20]
≥ 80%: inhibition at 200 ppm (Gaeumannomyces graminis; [10]) | inhibition at 200 ppm [3, 10] | pest or weed control at 200 ppm (Pyrenophora teres) | pest or weed control at 200 ppm [6]

CCON=C(C)c1ccc(-c2cccc(CCCO/N=C(\C)c3cccc(C)n3)n2)nc1C [P.23]
≥ 80%: pest or weed control at 200 ppm [1] | inhibition at 200 ppm [2] | inhibition at 200 ppm (Gaeumannomyces graminis; [10]) | inhibition at 200 ppm [9, 10] | inhibition at 200 ppm [3, 10] | pest or weed control at 200 ppm (Pyrenophora teres) | inhibition at 200 ppm [5, 11] | pest or weed control at 200 ppm [6] | pest or weed control at 200 ppm [8]

C#CCOc1cc(C)nc(-c2cccc(CCCO/N=C(\C)c3cccc(C)n3)n2)c1 [P.24]
≥ 80%: pest or weed control at 200 ppm [1] | inhibition at 200 ppm [2] | inhibition at 200 ppm (Gaeumannomyces graminis; [10]) | inhibition at 200 ppm [9, 10] | inhibition at 200 ppm [3, 10] | pest or weed control at 200 ppm (Pyrenophora teres) | inhibition at 200 ppm [4] | pest or weed control at 200 ppm [6] | inhibition at 200 ppm [7] | pest or weed control at 200 ppm [8]

CCCOc1cc(C)nc(-c2cccc(CCCO/N=C(\C)c3cccc(C)n3)n2)c1 [P.26]
≥ 80%: pest or weed control at 200 ppm [1] | inhibition at 200 ppm [2] | inhibition at 200 ppm (Gaeumannomyces graminis; [10]) | inhibition at 200 ppm [9, 10] | inhibition at 200 ppm [3, 10] | pest or weed control at 200 ppm (Pyrenophora teres) | inhibition at 200 ppm [4] | inhibition at 200 ppm [5, 11] | pest or weed control at 200 ppm [6] | inhibition at 200 ppm [7] | pest or weed control at 200 ppm [8]

CCc1cc(OC)c(C)c(-c2cccc(CCCO/N=C(\C)c3cccc(C)n3)n2)n1 [P.33]
≥ 80%: pest or weed control at 200 ppm [1] | inhibition at 200 ppm [2] | inhibition at 200 ppm [9, 10] | inhibition at 200 ppm [3, 10] | pest or weed control at 200 ppm (Pyrenophora teres) | pest or weed control at 200 ppm [6] | inhibition at 200 ppm [7] | pest or weed control at 200 ppm [8]

CCOc1cc(CC)nc(-c2cccc(CCCO/N=C(\C)c3cccc(C)n3)n2)c1C [P.34]
≥ 80%: pest or weed control at 200 ppm [1] | inhibition at 200 ppm [2] | inhibition at 200 ppm [9, 10] | inhibition at 200 ppm [3, 10] | pest or weed control at 200 ppm (Pyrenophora teres) | pest or weed control at 200 ppm [6] | inhibition at 200 ppm [7] | pest or weed control at 200 ppm [8]

CCCOc1cc(CC)nc(-c2cccc(CCCO/N=C(\C)c3cccc(C)n3)n2)c1C [P.35]
≥ 80%: pest or weed control at 200 ppm [1] | inhibition at 200 ppm [2] | inhibition at 200 ppm [9, 10] | inhibition at 200 ppm [3, 10] | pest or weed control at 200 ppm (Pyrenophora teres) | inhibition at 200 ppm [5, 11] | pest or weed control at 200 ppm [6] | inhibition at 200 ppm [7] | pest or weed control at 200 ppm [8]

CCc1cc(OC(C)C)c(C)c(-c2cccc(CCCO/N=C(\C)c3cccc(C)n3)n2)n1 [P.36]
≥ 80%: pest or weed control at 200 ppm [1] | inhibition at 200 ppm [2] | inhibition at 200 ppm [9, 10] | inhibition at 200 ppm [3, 10] | pest or weed control at 200 ppm (Pyrenophora teres) | inhibition at 200 ppm [5, 11] | pest or weed control at 200 ppm [6] | inhibition at 200 ppm [7] | pest or weed control at 200 ppm [8]

C=CCOc1cc(CC)nc(-c2cccc(CCCO/N=C(\C)c3cccc(C)n3)n2)c1C [P.37]
≥ 80%: pest or weed control at 200 ppm [1] | inhibition at 200 ppm [2] | inhibition at 200 ppm [9, 10] | inhibition at 200 ppm [3, 10] | pest or weed control at 200 ppm (Pyrenophora teres) | inhibition at 200 ppm [5, 11] | pest or weed control at 200 ppm [6] | inhibition at 200 ppm [7] | pest or weed control at 200 ppm [8]

C#CCOc1cc(CC)nc(-c2cccc(CCCO/N=C(\C)c3cccc(C)n3)n2)c1C [P.38]
≥ 80%: pest or weed control at 200 ppm [1] | inhibition at 200 ppm [2] | inhibition at 200 ppm [9, 10] | inhibition at 200 ppm [3, 10] | pest or weed control at 200 ppm (Pyrenophora teres) | inhibition at 200 ppm [5, 11] | pest or weed control at 200 ppm [6] | inhibition at 200 ppm [7] | pest or weed control at 200 ppm [8]

CCc1cc(Cl)c(C)c(-c2cccc(CCCO/N=C(\C)c3cccc(C)n3)n2)n1 [P.39]
≥ 80%: inhibition at 200 ppm [2] | inhibition at 200 ppm [9, 10] | inhibition at 200 ppm [3, 10] | inhibition at 200 ppm [4] | inhibition at 200 ppm [5, 11] | pest or weed control at 200 ppm [6] | inhibition at 200 ppm [7]

CCc1cc(Br)c(C)c(-c2cccc(CCCO/N=C(\C)c3cccc(C)n3)n2)n1 [P.41]
≥ 80%: inhibition at 200 ppm [2] | inhibition at 200 ppm [9, 10] | inhibition at 200 ppm [3, 10] | inhibition at 200 ppm [4] | inhibition at 200 ppm [5, 11] | pest or weed control at 200 ppm [6]
